Reference: PubChem BioAssay (NCI)
Several values for one entry are separate records, joined by “and”; a condition that tells them apart may be missing. Equal values may be shown once.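 Following 48 hours of exposure in 96-well plates, responses at five concentrations were used to interpolate endpoints linearly. Abbreviation: GI50, concentration required for 50% inhibition of growth. The concentration for full growth arrest is given as TGI.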

How the values were obtained:
Experiment in all cases: DTP human tumour cell line panel, 48 h
CCRF-CEM leukemia = test system: CCRF-CEM leukemia
OVCAR-5 ovarian = test system: OVCAR-5 ovarian
T-47D breast = test system: T-47D breast
UO-31 renal = test system: UO-31 renal
MOLT-4 leukemia = test system: MOLT-4 leukemia
NCI/ADR-RES ovarian = test system: NCI/ADR-RES ovarian
KM12 colon = test system: KM12 colon
U251 CNS = test system: U251 CNS

Row | SMILES | GI50 (CCRF-CEM leukemia) | TGI (CCRF-CEM leukemia) [µM] | GI50 (OVCAR-5 ovarian) | TGI (OVCAR-5 ovarian) | GI50 (T-47D breast) | TGI (T-47D breast) | GI50 (UO-31 renal) | TGI (UO-31 renal) | GI50 (MOLT-4 leukemia) | TGI (MOLT-4 leukemia) | GI50 (NCI/ADR-RES ovarian) | TGI (NCI/ADR-RES ovarian) | GI50 (KM12 colon) | TGI (KM12 colon) | GI50 (U251 CNS) | TGI (U251 CNS)
1 | COc1ccc(C[n+]2c3ccccc3n3c4ccc(N)cc4ccc32)c(OC)c1OC | 4.28 µM | 45.7 | 12.1 µM | 78.5 µM | 1.42 µM | 7.03 µM | 40.1 µM | > 100 µM | 3.14 µM | 35.2 µM | > 100 µM | > 100 µM | 2.41 µM | 13.7 µM | 1.7 µM | 14.5 µM
2 | NC1=NC(c2ccc(Cl)cc2)N(c2ccc(S(=O)(=O)Nc3ncccn3)cc2)C(N)=N1 (configuration not stated) | – | > 100 | – | > 100 µM | – | > 100 µM | – | > 100 µM | – | > 100 µM | – | > 100 µM | – | > 100 µM | – | > 100 µM
3 | Cc1oc2nc[nH]c(=O)c2c1C(=O)/C=C/c1ccc(Cl)cc1 | 1.81 µM | 6.94 | 3.17 µM | 12 µM | 1.72 µM | 7.82 µM | 1.09 µM | 11 µM | 2.75 µM | 9.98 µM | 2.44 µM | 21 µM | 2.97 µM | 9.16 µM | 1.97 µM | 5.01 µM
4 | O=c1oc2cc(N=Cc3ccccc3Cl)ccc2c2ccccc12 | – | > 100 | – | > 100 µM | – | > 100 µM | – | > 100 µM | – | > 100 µM | – | > 100 µM | – | > 100 µM | – | > 100 µM
5 | CCN(CC)C(=O)CC1=C(C)/C(=C/c2[nH]c(-c3ccc[nH]3)cc2OC)N=C1C | 0.258 µM | 35 | 5.19 µM | 60.9 µM | 0.272 µM | 13.1 µM | 0.554 µM | 2.5 µM | 0.357 µM | 39.4 µM | 0.563 µM | 14.8 µM | 0.374 µM | 59.2 µM | 0.449 µM | 15.5 µM
6 | NC(=O)c1cc(-c2ccncc2)cc(-c2ccccc2)c1N | > 25 µM | > 25 | > 25 µM | > 25 µM | 9.57 µM | > 25 µM | 6.41 µM | > 25 µM | 20 µM | > 25 µM | > 21 µM | > 25 µM | > 25 µM | > 25 µM | > 25 µM | > 25 µM
7 | COc1cc(NS(C)(=O)=O)ccc1Nc1c2ccccc2nc2c(C)cccc12 | 0.0322 µM and 0.0364 µM | – | 0.571 µM and 0.572 µM | 13.9 µM and 11.9 µM | 0.111 µM and 0.109 µM | 4.05 µM and 5.71 µM | 0.215 µM and 0.124 µM | 5.28 µM and 2.81 µM | 0.0245 µM and 0.0304 µM | 0.229 µM and 0.176 µM | 0.992 µM and 1.45 µM | 76.1 µM and 54.9 µM | 0.416 µM and 0.558 µM | 2.42 µM and 3.74 µM | 0.106 µM and 0.0963 µM | 1.15 µM and 0.868 µM
8 | CC(=O)Nc1ccc(-c2c3nc(c(-c4cc5ccccc5[n+](C)c4)c4ccc([nH]4)c(-c4ccc(NC(C)=O)cc4)c4nc(c(-c5cc6ccccc6[n+](C)c5)c5ccc2[nH]5)C=C4)C=C3)cc1 | 0.721 µM | > 50 | 8.54 µM | > 50 µM | 8.6 µM | 29.6 µM | 10.6 µM | 33.6 µM | > 50 µM | > 50 µM | 13.3 µM | 45.7 µM | 15.1 µM | > 50 µM | 13.5 µM | > 50 µM
9 | C=C1C(=O)O[C@H]2[C@H]1CC/C(Cn1cc(CNCCc3c[nH]c4ccc(Cl)cc34)nn1)=C\CC[C@@]1(C)O[C@@H]21 | 1.72 µM | 5.08 | 11.5 µM | 26.7 µM | 3.24 µM | 13.8 µM | 6.23 µM | 19.4 µM | 2.54 µM | 6.56 µM | > 100 µM | > 100 µM | 17.1 µM | 44.1 µM | 7.59 µM | 20.9 µM
10 | Cn1cc(C2=C(c3c4n(c5ccccc35)CCCC4)C(=O)NC2=O)c2ccccc21 | > 15.3 µM | > 25 | > 25 µM | > 25 µM | > 15.5 µM | > 25 µM | 11.3 µM | > 25 µM | > 17.2 µM | > 25 µM | 7.81 µM | > 25 µM | 9.71 µM | > 25 µM | 13.2 µM | > 25 µM
11 | Cc1cc(=O)oc2c(CN3CCCCC3)c(O)ccc12 | – | > 100 | – | > 100 µM | – | > 100 µM | – | – | – | > 100 µM | – | > 100 µM | – | – | – | > 100 µM
12 | COc1cc(-c2nn(-c3ccc(NC(=O)Nc4ccc(Cl)c(Cl)c4)cc3)cc2-c2ccncc2)ccc1Cl | 3.16 µM | > 100 | 2.54 µM | > 100 µM | 3.02 µM | 54.6 µM | 2.74 µM | 11.3 µM | 3.27 µM | > 100 µM | 3.24 µM | > 100 µM | 2.62 µM | 7.41 µM | 2.84 µM | 15.1 µM
13 | CCNC(C)(C)C(SS)c1ccc(Br)cc1 (configuration not stated) | – | 60 | – | > 100 µM | – | 93.6 µM | – | > 100 µM | – | 69.3 µM | – | > 100 µM | – | > 100 µM | – | > 100 µM
14 | N#CC(C#N)=Cc1c(-c2ccccc2)[nH]c2ccccc12 | 2.41 µM | 43.8 | 19.6 µM | > 100 µM | 4.23 µM | > 95.1 µM | 11 µM | > 75.6 µM | 13.3 µM | > 75.1 µM | 0.82 µM | > 45.2 µM | 0.66 µM | 27.5 µM | 1.18 µM | 28 µM
15 | CN(Cc1cnc(N)nc1N)c1ccc(C(=O)O)cc1 | > 100 µM | > 100 | > 100 µM | > 100 µM | > 100 µM | > 100 µM | > 100 µM | > 100 µM | > 100 µM | > 100 µM | > 100 µM | > 100 µM | > 100 µM | > 100 µM | > 100 µM | > 100 µM
16 | CC[C@@]1(OC(=O)CN)C(=O)OCc2c1cc1n(c2=O)Cc2cc3cc4c(cc3nc2-1)OCO4 | < 0.01 µM | – | < 0.0169 µM | 0.232 µM | < 0.01 µM | > 100 µM | < 0.01 µM | 0.111 µM | < 0.01 µM | – | < 0.01 µM | 0.015 µM | 0.0346 µM | 0.296 µM | < 0.01 µM | 0.202 µM
17 | Cc1csc(/C=N/NC(=O)c2nnn(-c3ccnc4c(C(F)(F)F)cccc34)c2C)c1 | 56.8 µM | > 100 | > 100 µM | > 100 µM | 29.5 µM | > 100 µM | > 100 µM | > 100 µM | 48.8 µM | > 100 µM | > 100 µM | > 100 µM | > 100 µM | > 100 µM | 22.3 µM | > 100 µM
18 | COc1ccc(C(C#N)NC23CC4CC(CC(C4)C2)C3)cc1OC (configuration not stated) | – | > 100 | – | > 100 µM | – | > 100 µM | – | > 100 µM | – | > 100 µM | – | > 100 µM | – | > 100 µM | – | > 100 µM
19 | CC(N=C(N)N)C(=O)O (configuration not stated) | – | > 100 | – | > 100 µM | – | > 100 µM | – | > 100 µM | – | > 100 µM | – | > 100 µM | – | > 100 µM | – | > 100 µM
20 | O=C(/C=C/c1ccccc1)c1c[nH]c2ccccc2c1=O | 2.88 µM | 9.97 | 3.87 µM | 17 µM | 3.05 µM | 17.1 µM | 3.26 µM | 14.7 µM | 3.16 µM | 20.8 µM | 2.93 µM | 13 µM | 3.37 µM | 11 µM | 2.29 µM | 11 µM
21 | COc1cc(/C=N/Nc2ncnc3c2cnn3C(C)C)ccc1O | 8.07 µM | > 23.1 | 8.83 µM | > 25 µM | 5.31 µM | > 21.5 µM | 3.56 µM | 17.3 µM | 6.53 µM | > 20.7 µM | 6.95 µM | > 25 µM | 6.2 µM | 24.7 µM | 8.11 µM | > 25 µM
22 | COc1ccc(-c2nn(-c3ccc(NC(=O)c4ccc(Cl)c(C(F)(F)F)c4)cc3)cc2-c2ccncc2)cc1Cl | 0.582 µM | > 100 | 1.33 µM | > 100 µM | 3.78 µM | > 100 µM | 0.566 µM | > 24.7 µM | 0.388 µM | > 100 µM | 2.07 µM | > 100 µM | 0.514 µM | > 100 µM | 0.408 µM | 7.82 µM
23 | Cc1onc(-c2c(F)cccc2Cl)c1-c1ncc(-c2ccc(Cl)cc2)o1 | 3.81 µM | > 100 | 74.4 µM | > 100 µM | 3.48 µM | > 100 µM | 5.47 µM | > 100 µM | 4.61 µM | > 100 µM | 5.08 µM | > 100 µM | 5.59 µM | > 100 µM | – | –
24 | CCOC(=O)C1=C(C)NC2SC(=O)/C(=C\c3ccccc3Cl)N2C1c1ccccc1 (configuration not stated) | > 100 µM | > 100 | > 100 µM | > 100 µM | 33.8 µM | > 100 µM | > 100 µM | > 100 µM | – | – | > 100 µM | > 100 µM | > 100 µM | > 100 µM | > 100 µM | > 100 µM
